# Reference: US7412284B2, “Apparatus for electroporation mediated delivery for drugs and genes” (Genetronics, Inc., priority 1997, dated 2008)
# B1: neocarcinostatin (protein, UniProt P0A3R9 35-147, looked up)
# Neocarzinostatin: AAPTATVTPSSGLSDGTVVKVAGAGLQAGTAYDVGQCAWVDTGVLACNPADFSSVTADANGSASTSLTVRRSFEGFLFDGTRWGTVDCTTAACQVGLSDAAGNGPEGVAISFN
# Legend:
# Head and Neck Cancer = assay: Clinical study of EPT with intralesional bleomycin for head and neck cancers; type: in vivo, humans; design: key to Response Status: Complete Response (CR): Disappearance of all evidence of tumor as determined by physical examination, and/or biopsy.; Partial Response (PR): 50% or greater reduction in tumor volume.; No Response (NR): less than 50% reduction in tumor volume
# Procedure: All of the following patients were treated with bleomycin intratumoral injection and needle arrays of different diameters with six needles. The voltage was set to achieve a nominal electric field strength of 1300 V/cm (the needle array diameter was multiplied by 1300 to give the voltage the generator was set at). The pulse length was 100 μs.
# The study was designed as a single center feasibility clinical study in which the efficacy of the EPT procedure in combination with intralesional bleomycin was compared to that for traditional surgery, radiation, and/or systemic chemotherapy. Approximately 50 study subjects were enrolled in the study. All study subjects were assessed prior to treatment by examination and biopsy. Postoperative assessment of study subjects was weekly for 4-6 weeks, and monthly thereafter for a total of 12 months. Approximately 8 to 12 weeks following therapy, a biopsy of the tumor site was performed. Use of CT or MRI scans was utilized in accordance to standard medical follow-up evaluation of HNC subjects.
# Tumor evaluation includes measuring the tumor diameter (in centimeters) and estimating its volume (in cubic centimeters). Prior to intratumoral administration of bleomycin sulfate, the tumor site is anesthetized with 1% lidocaine (xylocaine) and 1:100,000 epinephrine. The concentration of bleomycin sulfate injected is 4 units per milliliter, up to a maximum dose of 5 units per tumor. If more than one tumor per subject is treated, a total of 20 units per subject should not be exceeded. The dose of bleomycin administered is to be 1 unit/cm^3 of calculated tumor volume. Approximately ten minutes subsequent to the injection of bleomycin sulfate, the applicator is placed on the tumor and electrical pulses initiated. Each application or an initiation of electrical pulses is referred to as a sequence. The use of EPT is not a contraindication to any subsequent palliative treatment required by the subject.
# In this study, success was defined as significant tumor regression in a period of 16 weeks or less without major side effects seen with traditional therapy. There are three possible response outcomes:
# Complete Response (CR): Disappearance of all evidence of tumor as determined by physical examination, and/or biopsy. • Partial Response (PR): 50% or greater reduction in tumor volume. • No Response (NR): less than 50% reduction in tumor volume.
# If the tumor increases (25% tumor volume) in size, other therapy, if indicated, was instituted per subject's desire.
# [1] = test system: Cutaneous and Subcutaneous Cancer; assay: Clinical studies using bleomycin sulfate and EPT, cutaneous and subcutaneous cancer; type: in vivo, humans
# Panc-3 = assay: EPT of Panc-3 with neocarcinostatin, pre- and post-pulse injection; type: in vivo, nude mice
# Excerpt: The Panc-3 and NSCLC models were utilized with the drug neocarcinostatin (NCS) following the same procedures as outlined above. […] It was believed that due to the low isoelectric point of NCS, electrostatic interaction prevented the drug from entering the tumor cell. Therefore, the experiment was repeated by pulsing first and injecting NCS post-pulse.
# [2] = Adenocarcinoma, 2 patients, 2 lesions, IT 2 to 8 Units
# [3] = Squamous Cell, 7 patients, 7 lesions, IT 1 to 16 Units
# [4] = enrollment start 01/20/95, Basal Cell, 18 patients, 54 lesions, IT 0.5 to 3 Units
# [5] = enrollment start 01/20/95, Kaposi Sarcoma, 1 patient, 4 lesions, IT 1 to 2 Units
# [6] = enrollment start 01/20/95, Met. Melanoma, 10 patients, 84 lesions, IT 0.2 to 2 Units
# [7] = enrollment start 01/20/95, Squamous Cell, 1 patient, 1 lesion, IT 1.5 Units
# [8] = enrollment start 01/20/95, Summary, 30 patients, 146 lesions
# [9] = enrollment start 02/18/94, Basal Cell, 2 patients, 6 lesions, IV 22 to 23 Units
# [10] = enrollment start 02/18/94, Met. Breast Adenocarcinoma, 1 patient, 2 lesions, IV 17 Units
# [11] = enrollment start 02/18/94, Met. Melanoma, 3 patients, 10 lesions, IV 19 to 23 Units
# [12] = enrollment start 08/01/96, Basal Cell, 7 patients, 8 lesions, IT 0.8 to 0.64 Units
# [13] = enrollment start 08/01/96, Summary, 7 patients, 8 lesions
molecule,measurement,setting,value
bleomycin sulfate,Tumor Response CR %,Head and Neck Cancer; [2],0%
same,Tumor Response NR %,Head and Neck Cancer; [2],100%
same,Tumor Response PR %,Head and Neck Cancer; [2],100%
same,Tumor Response CR %,Head and Neck Cancer; [3],43%
same,Tumor Response NR %,Head and Neck Cancer; [3],29%
same,Tumor Response PR %,Head and Neck Cancer; [3],29%
same,Response Status,"Head and Neck Cancer; Subject 1/J-S, first response (week 2)",PR (Partial Response (PR): 50% or greater reduction in tumor volume.)
same,Response Status,"Head and Neck Cancer; Subject 1/J-S, second response (week 8)",CR
same,Time to Response (Week),"Head and Neck Cancer; Subject 1/J-S, to CR",8 Week
same,Time to Response (Week),"Head and Neck Cancer; Subject 1/J-S, to PR",2 Week
same,Response Status,Head and Neck Cancer; Subject 2/G-C,PR (Partial Response (PR): 50% or greater reduction in tumor volume.)
same,Time to Response (Week),Head and Neck Cancer; Subject 2/G-C,4 Week
same,Response Status,Head and Neck Cancer; Subject 3/L-O,CR
same,Time to Response (Week),Head and Neck Cancer; Subject 3/L-O,3 Week
same,Response Status,"Head and Neck Cancer; Subject 4/G-R, first response (week 4)",PR (Partial Response (PR): 50% or greater reduction in tumor volume.)
same,Response Status,"Head and Neck Cancer; Subject 4/G-R, second response (week 9)",CR
same,Time to Response (Week),"Head and Neck Cancer; Subject 4/G-R, to CR",9 Week
same,Time to Response (Week),"Head and Neck Cancer; Subject 4/G-R, to PR",4 Week
same,Response Status,"Head and Neck Cancer; Subject 5/R-H, segmented treatment",NR** (No Response (NR): less than 50% reduction in tumor volume.)
same,Response Status,Head and Neck Cancer; Subject 6/C-B,PR (Partial Response (PR): 50% or greater reduction in tumor volume.)
same,Time to Response (Week),Head and Neck Cancer; Subject 6/C-B,2 Week
same,Response Status,"Head and Neck Cancer; Subject 7/C-J, segmented treatment",NR** (No Response (NR): less than 50% reduction in tumor volume.)
same,Response Status,Head and Neck Cancer; Subject 8/L-J,PR (Partial Response (PR): 50% or greater reduction in tumor volume.)
same,Time to Response (Week),Head and Neck Cancer; Subject 8/L-J,4 Week
same,Time to Response (Week),Head and Neck Cancer; Subject 9/J-T,7 Week
same,Response Status,"Head and Neck Cancer; Subject 9/J-T, segmented treatment",PR** (Partial Response (PR): 50% or greater reduction in tumor volume.)
same,subjects with a complete response,"Head and Neck Cancer; Subject No. 1, 3 and 4, of 9 subjects",Three
same,subjects with a partial response,"Head and Neck Cancer; Subject No. 2, 6, 8 and 9, of 9 subjects",four
same,subjects with no response,"Head and Neck Cancer; Subject No. 5 and 7, of 9 subjects",two
same,Tumor Response CR %,"Head and Neck Cancer; Summary, 9 patients, 9 lesions",33%
same,Tumor Response NR %,"Head and Neck Cancer; Summary, 9 patients, 9 lesions",22%
same,Tumor Response PR %,"Head and Neck Cancer; Summary, 9 patients, 9 lesions",44%
same,subjects who died prior to reaching week 12,"Head and Neck Cancer; due to progressive disease or complications unrelated to study treatment (Subject No. 2, 5 and 7)",Three
same,Tumor Response CR %,[1]; [4],94%
same,Tumor Response NR %,[1]; [4],0%
same,Tumor Response PR %,[1]; [4],9%
same,Tumor Response CR %,[1]; [5],100%
same,Tumor Response NR %,[1]; [5],0%
same,Tumor Response PR %,[1]; [5],0%
same,Tumor Response CR %,[1]; [6],91%
same,Tumor Response NR %,[1]; [6],2%
same,Tumor Response PR %,[1]; [6],9%
same,Tumor Response CR %,[1]; [7],0%
same,Tumor Response NR %,[1]; [7],0%
same,Tumor Response PR %,[1]; [7],100%
same,Tumor Response CR %,[1]; [8],89%
same,Tumor Response NR %,[1]; [8],1%
same,Tumor Response PR %,[1]; [8],10%
same,Tumor Response CR %,[1]; [9],17%
same,Tumor Response NR %,[1]; [9],0%
same,Tumor Response PR %,[1]; [9],83%
same,Tumor Response CR %,[1]; [10],100%
same,Tumor Response NR %,[1]; [10],0%
same,Tumor Response PR %,[1]; [10],0%
same,Tumor Response CR %,[1]; [11],30%
same,Tumor Response NR %,[1]; [11],50%
same,Tumor Response PR %,[1]; [11],20%
same,Tumor Response CR %,[1]; [12],67%
same,Tumor Response NR %,[1]; [12],0%
same,Tumor Response PR %,[1]; [12],33%
same,Tumor Response CR %,[1]; [13],67%
same,Tumor Response NR %,[1]; [13],0%
same,Tumor Response PR %,[1]; [13],33%
B1,post-pulse versus pre-pulse administration,Panc-3; comparison of FIGS. 11a and 11b,more effective than pre-pulse administration
same,final vs initial tumor volume,"Panc-3; post-pulse injection, day 13, mice ID 1, 2, 4 and 7 of 7, appeared to be due to edema",an increase in tumor volume was observed
same,tumor volume,"Panc-3; post-pulse injection, day 23, separate group of 5 mice",all mice showed a marked reduction in tumor volume
same,reduction of tumor size,Panc-3; pre-pulse dosing,not effective in reducing tumor size at all
